Here are results for six molecules from patent US8653036B2, “Methods of treating retinitis pigmentosa” (Mimetogen Pharmaceuticals Inc., priority 2009, dated 2014).

Data set [1] has as its system mouse model of retinal degeneration. The experiment in a line: Mouse model of retinal degeneration: ERG (scotopic and photopic) and number of Outer Nuclear Layer rows. The settings on record: drug treated versus control treated animals. The format is in vivo. How it is done:
Additional experiments in a mouse model of retinal degeneration were conducted.

For data set [2], the system named is APRE19 cells. The experiment in a line: Protection of retinal pigmented epithelial cells from oxidative-stress-induced apoptosis (TNFα and H2O2), nuclei stained with Hoechst reagent. The settings on record: stressed APRE19 cells, TNFα and H2O2, sixteen hours. The format is cell-based. On the procedure:
Neurotrophic Protection of Retinal Pigmented Epithelial Cells from Degeneration Due to Oxidative Stress
The purpose of this study was to investigate the pharmacological concept of neurotrophic prevention of oxidative-stress-induced degeneration of retinal pigmented epithelial (RPE) cells. The aim of this study was to validate specific compounds as therapy for retinitis pigmentosa.
APRE19 cells were cultured in complete media, followed by eight hours of serum starvation. Then apoptosis was induced by exposure to oxidative stress (TNFα and H2O2), in the presence or absence of test compounds or controls for sixteen hours. Apoptosis was quantified as the percentage of dead cells over total live+dead cells by counting nuclei stained with Hoechst reagent.
Test agents included nerve growth factor (an agonist of TrkA and p75 receptors), Neurotrophin-3 (an agonist of TrkC and p75 receptors), and compounds D3, 3Ak, 3Ae and 3Aa.

In data set [3] the test system is APRE19 cells. The settings on record: cited from earlier work.

On to `CC[C@H](C)[C@@H]1NC(=O)c2cc(N)ccc2OCc2ccc(C(N)=O)cc2NC(=O)[C@H](CCCCN)NC1=O` [Compound 3Aa], for which, in data set [1], the “drug effect on ERG (scotopic and photopic) and number of Outer Nuclear Layer rows versus control” value is on record as “did not show a drug effect that was statistically significant from control”. The “protection of apoptosis (in words)” value in data set [2] was “protection is not dose dependent and is less than that seen with compounds D3, 3Ak and 3Ae”.
Regarding `CC[C@H](C)[C@@H]1NC(=O)c2cc(N)ccc2OCc2ccc(C(N)=O)cc2NC(=O)[C@H](CCCNC(=N)N)NC1=O` [Compound 3Ae], the “protection of apoptosis (in words)” value in data set [2] was “quantitative and significant protection of apoptosis, in a dose dependent manner”.
The same measure, in the same setting: in the case of `N=C(N)NCCC[C@@H]1NC(=O)c2cc(N)ccc2OCc2ccc(C(N)=O)cc2NC(=O)CNC1=O` [Compound 3Ak] it was “quantitative and significant protection of apoptosis, in a dose dependent manner”.
Same read-out and setting: in the case of `NCCCC[C@@H]1NC(=O)[C@H](CCC(=O)O)NC(=O)c2cc([N+](=O)[O-])ccc2OCCC(C(=O)NCC(=O)O)NC1=O` (stereo partly shown) [Compound D3] it was “quantitative and significant protection of apoptosis, in a dose dependent manner”.
As to “NGF: nerve growth factor (an agonist of TrkA and p75 receptors)”, the “protection of stressed APRE19 cells by neurotrophins (published)” value in data set [3] is “Protection of stressed APRE19 cells”.

B1: NT-3: Neurotrophin-3 (an agonist of TrkC and p75 receptors) (protein, UniProt P20783 139-257, looked up)
Neurotrophin-3: YAEHKSHRGEYSVCDSESLWVTDKSSAIDIRGHQVTVLGEIKTGNSPVKQYFYETRCKEARPVKNGCRGIDDKHWNSQCKTSQTYVRALTSENNKLVGWRWIRIDTSCVCALSRKIGRT
In the case of B1, the “protection of stressed APRE19 cells by neurotrophins (published)” value in data set [3] is on record as “Protection of stressed APRE19 cells”.
